In PMC7375528, “Piperidine scaffold as the novel P2-ligands in cyclopropyl-containing HIV-1 protease inhibitors: Structure-based design, synthesis, biological evaluation and docking study” (PLoS ONE, 2020):

How the values were obtained:
wild-type HIV-1 PR = target: T1, wild-type HIV-1 PR (Human immunodeficiency virus type 1 group M subtype B, UniProt P04585); experiment: In vitro HIV-1 PR activity assay (FRET); format: biochemical
T1 construct: HIV-1 protease was cloned and heterologously expressed in Escherichia coli and purified; made in house; host or cells: Escherichia coli
Description: (§1) The inhibitory effect of all new designed inhibitors were measured using fluorescence resonance energy transfer (FRET) method. […] The energy transfer donor (EDANS) and acceptor (DABCYL) dyes are labeled at two ends of the peptide to perform FRET. Excitation and emission wavelengths were set at 340 nm and 490 nm. Inhibitors were dissolved in dimethylsulfoxide (DMSO) and diluted to appropriate concentrations. HIV-1 protease was cloned and heterologously expressed in Escherichia coli and purified. The experiment was carried out in 96-well plates. The FRET assay reaction buffer contained 0.1 M sodium acetate, 1 M sodium chloride, 1 mM ethylenediaminetetraacetic acid (EDTA), 1 mM dithiothreitol (DTT), 2% DMSO and 1 mg/mL bovine serum albumin (BSA) with an adjusted pH 4.7. Protease and inhibitor were mixed and incubated for 20–30 mins at room temperature and then the substrate was added. Each reaction was recorded for about 10 mins. From plots of concentration versus the calculated percent inhibition, IC50 values were determined.
as §1, with “20-30” for “20–30”, “mins.” for “mins. From plots of concentration versus the calculated percent inhibition, IC50 values were determined.”

SMILES | IC50 (wild-type HIV-1 PR) [nM] | melting point [°C]
COc1ccc(S(=O)(=O)N(C[C@@H](O)[C@H](Cc2ccccc2)NC(=O)C2CCNCC2)C2CC2)cc1 [26a, N-((2S,3R)-4-((N-cyclopropyl-4-methoxyphenyl)sulfonamido)-3-hydroxy-1-phenylbutan-2-yl)piperidine-4-carboxamide] | 155 ± 15.1 | 219.9 to 221.3
COc1ccc(S(=O)(=O)N(C[C@@H](O)[C@H](Cc2ccccc2)NC(=O)CN2CCCCC2)C2CC2)cc1 [27a, N-((2S,3R)-4-((N-cyclopropyl-4-methoxyphenyl)sulfonamido)-3-hydroxy-1-phenylbutan-2-yl)-2-(piperidin-1-yl)acetamide] | 228 ± 45 | 63.6 to 65.8
O=C(N[C@@H](Cc1ccccc1)[C@H](O)CN(C1CC1)S(=O)(=O)c1ccc(C(F)(F)F)cc1)[C@H]1CCCNC1 [23b, (S)-N-((2S,3R)-4-((N-cyclopropyl-4-(trifluoromethyl)phenyl)sulfonamido)-3-hydroxy-1-phenylbutan-2-yl)piperidine-3-carboxamide] | 264 ± 69.1 | 236.5 to 238.4
CN1CCC[C@H](C(=O)N[C@@H](Cc2ccccc2)[C@H](O)CN(C2CC2)S(=O)(=O)c2ccc(N)cc2)C1 [25d, (S)-N-((2S,3R)-4-((4-amino-N-cyclopropylphenyl)sulfonamido)-3-hydroxy-1-phenylbutan-2-yl)-1-methylpiperidine-3-carboxamide] | 236 ± 36.5 | 76.8 to 78.5
O=C(N[C@@H](Cc1ccccc1)[C@H](O)CN(C1CC1)S(=O)(=O)c1ccc([N+](=O)[O-])cc1)[C@H]1CCCNC1 [23c, (S)-N-((2S,3R)-4-((N-cyclopropyl-4-nitrophenyl)sulfonamido)-3-hydroxy-1-phenylbutan-2-yl)piperidine-3-carboxamide] | 483 ± 103 | 155.9 to 157.2
O=C(CN1CCCCC1)N[C@@H](Cc1ccccc1)[C@H](O)CN(C1CC1)S(=O)(=O)c1ccc([N+](=O)[O-])cc1 [27c, N-((2S,3R)-4-((N-cyclopropyl-4-nitrophenyl)sulfonamido)-3-hydroxy-1-phenylbutan-2-yl)-2-(piperidin-1-yl)acetamide] | 288 ± 62 | 82.9 to 84.1
O=C(N[C@@H](Cc1ccccc1)[C@H](O)CN(C1CC1)S(=O)(=O)c1ccc(C(F)(F)F)cc1)C1CCNCC1 [26b, N-((2S,3R)-4-((N-cyclopropyl-4-(trifluoromethyl)phenyl)sulfonamido)-3-hydroxy-1-phenylbutan-2-yl)piperidine-4-carboxamide] | 124 ± 27.6 | 243.3 to 245.1
CN1CCC[C@H](C(=O)N[C@@H](Cc2ccccc2)[C@H](O)CN(C2CC2)S(=O)(=O)c2ccc(C(F)(F)F)cc2)C1 [25b, (S)-N-((2S,3R)-4-((N-cyclopropyl-4-(trifluoromethyl)phenyl)sulfonamido)-3-hydroxy-1-phenylbutan-2-yl)-1-methylpiperidine-3-carboxamide] | 110 ± 27.2 | 102.7 to 104.6
CN1CCC[C@H](C(=O)N[C@@H](Cc2ccccc2)[C@H](O)CN(C2CC2)S(=O)(=O)c2ccc([N+](=O)[O-])cc2)C1 [25c, (S)-N-((2S,3R)-4-((N-cyclopropyl-4-nitrophenyl)sulfonamido)-3-hydroxy-1-phenylbutan-2-yl)-1-methylpiperidine-3-carboxamide] | 523 ± 104 | 133.2 to 134.8
COc1ccc(S(=O)(=O)N(C[C@@H](O)[C@H](Cc2ccccc2)NC(=O)[C@H]2CCCN(C)C2)C2CC2)cc1 [25a, (S)-N-((2S,3R)-4-((N-cyclopropyl-4-methoxyphenyl)sulfonamido)-3-hydroxy-1-phenylbutan-2-yl)-1-methylpiperidine-3-carboxamide] | 283 ± 36.4 | 88.9 to 91.2
O=C(N[C@@H](Cc1ccccc1)[C@H](O)CN(C1CC1)S(=O)(=O)c1ccc([N+](=O)[O-])cc1)C1CCNCC1 [26c, N-((2S,3R)-4-((N-cyclopropyl-4-nitrophenyl)sulfonamido)-3-hydroxy-1-phenylbutan-2-yl)piperidine-4-carboxamide] | 268 ± 37.8 | 186.2 to 187.7
